Literature values, collected in patent US11957723B2, “Methods and uses of microbiome compositions, components, or metabolites for treating neurodegenerative diseases” (MarvelBiome, Inc., priority 2021, dated 2024).

Test system: ALS patients

Nc1nc2ccc(OC(F)(F)F)cc2s1 [Riluzole]
life span expansion (ALS patients in the early stages): about a three-month life span expansion
therapeutic benefit (ALS patients in the late stages): no therapeutic benefit
